From PMC4301037, “Identification and Structure–Function Analysis of Subfamily Selective G Protein-Coupled Receptor Kinase Inhibitors” (ACS Chemical Biology, 2014)
Read-outs that look alike come from different tables or passages of the source.

Assays:
GRK1 [1] = target: T1, GRK1 (Bos taurus, UniProt P28327); assay: DSF retest (confirmation), GRK1; format: binding, bovine; settings: for GRK1 Tm: 0.2 mg mL^–1 kinase; for GRK1 ΔTm: relative to intrinsic melting point of the kinase
T1 construct: Bovine GRK1_1–535, bovine and human GRK2S670A; made in house
T1 sequence (P28327 1-535): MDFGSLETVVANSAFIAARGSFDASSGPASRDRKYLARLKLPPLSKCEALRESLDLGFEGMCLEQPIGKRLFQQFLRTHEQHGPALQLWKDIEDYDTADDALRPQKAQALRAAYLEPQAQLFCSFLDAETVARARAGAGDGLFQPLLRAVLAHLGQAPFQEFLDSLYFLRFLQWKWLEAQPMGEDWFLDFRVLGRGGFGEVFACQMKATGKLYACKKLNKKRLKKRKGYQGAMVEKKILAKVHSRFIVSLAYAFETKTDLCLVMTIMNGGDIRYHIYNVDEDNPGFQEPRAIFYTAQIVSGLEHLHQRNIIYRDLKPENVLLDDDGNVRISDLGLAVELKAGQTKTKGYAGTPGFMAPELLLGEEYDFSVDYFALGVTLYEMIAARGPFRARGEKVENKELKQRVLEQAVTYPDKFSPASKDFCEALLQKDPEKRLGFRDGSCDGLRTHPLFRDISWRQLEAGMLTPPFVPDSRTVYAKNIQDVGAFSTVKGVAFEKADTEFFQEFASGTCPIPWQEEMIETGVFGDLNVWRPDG

protein kinase A (PKA) = target: T2, protein kinase A (PKA) (Mus musculus, UniProt P05132); assay: DSF retest (confirmation), PKA; format: binding; settings: for PKA Tm: 0.2 mg mL^–1 kinase; for PKA ΔTm: relative to intrinsic melting point of the kinase
T2 construct: His tag (inferred from pET15b vector and Ni-NTA column) (N); host or cells: E. coli Rosetta(DE3)pLysS
Protocol: Fourteen compounds (Figure 1a–c), including all GRK2 hits except staurosporine, and the most stabilizing pyrrolopyrimidine-containing compounds were obtained from GSK and retested using DSF on GRKs representing each vertebrate subfamily (GRK1, 2, and 5) (Table 1). […] The ability of these compounds to shift the Tm of the related AGC family kinase member protein kinase A (PKA) was also assessed (Table 1). In no case was ΔTm greater for PKA than for one of the tested GRKs. […]. There was no correlation for GRK1 (Figure 2c).
DSF was conducted using a ThermoFluor plate reader (Johnson & Johnson) in a buffer containing 20 mM HEPES, pH 7.0, 5 mM MgCl2, 2 mM DTT, and 1 mM CHAPS with 0.2 mg mL^–1 final concentration of GRK or PKA and 100 μM 1-anilinonaphthalene-8-sulfonic acid.[14]

GRK1 [2] = target: T1, GRK1; assay: In vitro phosphorylation assay (tubulin, 5 μM ATP), GRK1; format: biochemical, bovine
GRK1, 2, and 5 and PKA = assay: Ssel selectivity score calculated from inhibition of GRK1, 2, 5 and PKA
human GRK2S670A = target: T3, human GRK2S670A (Homo sapiens, UniProt P25098, S670A); assay: Primary DSF (differential scanning fluorimetry) inhibitor screen, GRK2; format: binding
T3 construct: when using full-length kinases as the receptor[37] instead of isolated kinase domains; made in house
T3 sequence (P25098 1-689 S670A): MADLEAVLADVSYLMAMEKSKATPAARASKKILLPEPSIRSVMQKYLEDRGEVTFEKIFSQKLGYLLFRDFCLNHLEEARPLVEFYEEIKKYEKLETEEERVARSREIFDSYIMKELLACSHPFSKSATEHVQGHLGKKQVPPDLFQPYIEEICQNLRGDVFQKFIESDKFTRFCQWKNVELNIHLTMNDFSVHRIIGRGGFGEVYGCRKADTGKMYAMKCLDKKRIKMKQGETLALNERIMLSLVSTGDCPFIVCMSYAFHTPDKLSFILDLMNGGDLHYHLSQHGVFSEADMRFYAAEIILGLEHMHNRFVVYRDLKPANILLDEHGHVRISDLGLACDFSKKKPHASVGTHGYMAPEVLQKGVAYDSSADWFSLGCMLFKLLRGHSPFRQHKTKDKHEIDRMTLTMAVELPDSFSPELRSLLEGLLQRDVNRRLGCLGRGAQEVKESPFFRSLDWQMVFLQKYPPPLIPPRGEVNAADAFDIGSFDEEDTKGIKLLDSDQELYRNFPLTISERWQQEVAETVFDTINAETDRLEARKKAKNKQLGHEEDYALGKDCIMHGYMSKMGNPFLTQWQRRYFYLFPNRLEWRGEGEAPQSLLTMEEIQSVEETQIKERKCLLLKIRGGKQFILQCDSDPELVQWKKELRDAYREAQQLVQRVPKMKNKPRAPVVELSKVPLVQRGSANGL

bovine GRK5 = target: T4, bovine GRK5 (Bos taurus, UniProt P43249); assay: Primary DSF inhibitor screen, GRK5; format: binding; settings: 10 μM compound; for ΔTm at 10 µM / ΔTm, primary screen, GRK5: 2 μM kinase, relative to DMSO control; for ΔTm at 10 µM: read-out: ΔTm, primary screen, GRK5; for rank in the primary screen, GRK5: rank ordering of compounds in primary DSF screen
T4 construct: when using full-length kinases as the receptor[37] instead of isolated kinase domains; made in house

GRK2 [3] = target: T5, GRK2 (Homo sapiens, UniProt P25098, S670A); assay: DSF retest (confirmation), GRK2; format: binding; settings: for GRK2 Tm: 0.2 mg mL^–1 kinase; for GRK2 ΔTm: relative to intrinsic melting point of the kinase
T5 construct: made in house
T5 sequence (P25098 1-689 S670A): T3 sequence (P25098 1-689 S670A)

GRK5 [4] = target: T6, GRK5 (Bos taurus, UniProt P43249); assay: DSF retest (confirmation), GRK5; format: binding, bovine; settings: for GRK5 Tm: 0.2 mg mL^–1 kinase; for GRK5 ΔTm: relative to intrinsic melting point of the kinase
T6 construct: when using full-length kinases as the receptor[37] instead of isolated kinase domains; made in house

GRK2 [5] = target: T7, GRK2 (Bos taurus, UniProt P21146, S670A); assay: In vitro phosphorylation assay (tubulin, 5 μM ATP), GRK2; format: biochemical, bovine; settings: for IC50: read-out: GRK2 log IC50 (converted)
T7 construct: made in house
T7 sequence (P21146 1-689 S670A): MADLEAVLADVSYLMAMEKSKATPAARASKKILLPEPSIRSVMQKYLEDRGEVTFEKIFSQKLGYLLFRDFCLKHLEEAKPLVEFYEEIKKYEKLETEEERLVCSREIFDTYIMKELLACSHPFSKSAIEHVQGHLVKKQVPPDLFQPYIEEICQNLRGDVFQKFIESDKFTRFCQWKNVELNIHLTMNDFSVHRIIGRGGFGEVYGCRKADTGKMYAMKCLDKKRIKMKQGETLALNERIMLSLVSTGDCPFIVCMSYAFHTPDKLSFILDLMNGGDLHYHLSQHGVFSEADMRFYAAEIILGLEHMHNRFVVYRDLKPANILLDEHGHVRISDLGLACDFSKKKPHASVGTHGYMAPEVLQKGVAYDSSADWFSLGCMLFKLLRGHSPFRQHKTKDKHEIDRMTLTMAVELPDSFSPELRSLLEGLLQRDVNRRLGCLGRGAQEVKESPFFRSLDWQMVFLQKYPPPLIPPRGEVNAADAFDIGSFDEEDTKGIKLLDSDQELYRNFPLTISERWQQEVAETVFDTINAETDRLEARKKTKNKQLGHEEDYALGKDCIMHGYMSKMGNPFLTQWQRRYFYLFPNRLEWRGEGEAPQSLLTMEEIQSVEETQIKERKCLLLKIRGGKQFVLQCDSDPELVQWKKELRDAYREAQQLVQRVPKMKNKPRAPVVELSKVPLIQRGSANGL

GRK5 [6] = target: T6, GRK5; assay: In vitro phosphorylation assay (tubulin, 5 μM ATP), GRK5; format: biochemical, bovine; settings: for IC50: read-out: GRK5 log IC50 (converted)
PKA = target: T8, PKA (Mus musculus, UniProt P05132); assay: PKA inhibition assay (ADP-Glo, CREBtide, 100 μM ATP); format: biochemical
T8 construct: His tag (inferred from pET15b vector and Ni-NTA column) (N); host or cells: E. coli Rosetta(DE3)pLysS

[7] = read-out: GRK1 log IC50 (converted)
[8] = selectivity score from inhibition of GRK1, 2, 5 and PKA, <0.5 selective
[9] = 10 μM compound, 2 μM kinase, relative to DMSO control
[10] = 10 μM compound, 2 μM kinase, relative to DMSO control, read-out: ΔTm, primary screen, GRK2
[11] = logarithm of IC50 (−3.3 corresponds to 0.5 mM, footnote c), 438 nM PKA, 100 μM ATP, CREBtide, read-out: PKA log IC50 (converted)

T6 sequence (P43249 whole entry, the tested form may be a part): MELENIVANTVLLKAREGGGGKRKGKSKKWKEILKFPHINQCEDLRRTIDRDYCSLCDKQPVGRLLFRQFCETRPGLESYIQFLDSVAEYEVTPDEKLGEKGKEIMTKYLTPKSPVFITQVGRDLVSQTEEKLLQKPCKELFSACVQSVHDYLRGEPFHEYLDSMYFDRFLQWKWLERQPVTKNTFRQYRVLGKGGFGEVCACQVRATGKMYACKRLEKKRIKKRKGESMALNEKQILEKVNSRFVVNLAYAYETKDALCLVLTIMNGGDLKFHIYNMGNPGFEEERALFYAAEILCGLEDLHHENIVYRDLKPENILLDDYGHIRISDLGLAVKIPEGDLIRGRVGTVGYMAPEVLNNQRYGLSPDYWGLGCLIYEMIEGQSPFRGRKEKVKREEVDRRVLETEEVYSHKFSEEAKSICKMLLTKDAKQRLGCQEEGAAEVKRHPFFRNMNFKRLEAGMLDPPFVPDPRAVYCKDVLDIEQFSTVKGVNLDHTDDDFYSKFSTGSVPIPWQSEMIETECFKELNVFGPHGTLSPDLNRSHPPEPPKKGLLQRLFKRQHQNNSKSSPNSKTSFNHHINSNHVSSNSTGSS
T4 sequence (P43249 whole entry, the tested form may be a part): as above

Structure (SMILES) | GRK1 Tm (GRK1 [1]) | GRK1 ΔTm (GRK1 [1]) | PKA Tm (protein kinase A (PKA)) | PKA ΔTm (protein kinase A (PKA)) | IC50 (GRK1 [2]; [7]) | Ssel (GRK1, 2, and 5 and PKA; [8]) | ΔTm at 10 µM (bovine GRK5) | GRK2 Tm (GRK2 [3]) | GRK2 ΔTm (GRK2 [3]) | GRK5 Tm (GRK5 [4]) | GRK5 ΔTm (GRK5 [4]) | IC50 (GRK2 [5]) | GRK2 fold (increase in potency relative to paroxetine) (GRK2 [5]) | GRK5 fold (increase in potency relative to paroxetine) (GRK5 [6]) | IC50 (PKA; [11]) | ΔTm, primary screen, GRK5 (bovine GRK5) | rank in the primary screen, GRK5 (bovine GRK5) | IC50 (GRK5 [6]) | other results
CC1=C(C(=O)Nc2ccc3[nH]ncc3c2)C(c2ccc(F)cc2)NC(=O)N1 (stereo not shown) [GSK180736A] | 25.3 °C | 5.4 °C | 49.2 °C | 3.8 °C | > 1000 µM | 0.022 |  |  |  |  |  |  |  |  |  |  |  |  | 
CC1=C(C(=O)Nc2ccc3[nH]ncc3c2)C(c2ccc(Cl)c(Cl)c2)CC(=O)N1 (stereo not shown) [GSK299115A] | 23.4 °C | 3.5 °C | 49.5 °C | 4.1 °C | > 1000 µM | 0.360 | 3.55 °C | 48.3 °C | 10.7 °C | 28.1 °C | 1.3 °C | 3.16 µM | 0.40 fold | 1.6 fold | 63.1 µM |  |  |  | ΔTm, primary screen, GRK2 (human GRK2S670A; [9]): 4.8 °C; ΔTm at 10 µM (human GRK2S670A; [10]): 4.83 °C; rank in the primary screen, GRK2 (human GRK2S670A; rank ordering of compounds in primary DSF screen, 10 μM compound): 4; IC50 (PKA; read-out: IC50 against PKA): < 100 µM
CCCN1CCC(c2ccc(Nc3nc(Nc4cc(F)ccc4C(N)=O)c4cc[nH]c4n3)c(OC)c2)CC1 [GSK1326255A] |  |  | 48.5 °C | 3.1 °C |  | 0.586 | 6.35 °C | 42.4 °C | 4.9 °C | 29.3 °C | 2.5 °C | 7.94 µM |  |  | > 501 µM |  |  |  | ΔTm at 10 µM (human GRK2S670A; [10]): 3.29 °C; IC50 (GRK1 [2]): 501 µM
CCCN1CCC(Oc2cc(Nc3nc(Nc4cccc(F)c4C(N)=O)c4cc[nH]c4n3)c(OC)cc2Cl)CC1 [GSK1713088A] |  |  | 45.8 °C | 0.4 °C |  |  | 7.37 °C | 44.2 °C | 6.7 °C | 40.3 °C | 13.6 °C | 6.31 µM |  |  | > 501 µM | 7.4 °C | 11 | 3.16 µM | 
COc1cc2c(cc1Nc1nc(Nc3ccsc3C(N)=O)c3cc[nH]c3n1)N(C(=O)CN(C)C)CCC2 [GSK2110236A] | 18.5 °C | –1.4 °C | 46.6 °C | 1.2 °C | 0.631 µM | 0.561 | 8.36 °C | 40.6 °C | 3.0 °C | 32.6 °C | 5.8 °C | 20 µM | 0.063 fold | 40 fold | > 501 µM | 8.3 °C | 7 | 3.16 µM | GRK1 fold (increase in potency relative to paroxetine) (GRK1 [2]): 631 fold; selectivity for GRK5 over GRK2 (GRK5 [6]; from IC50 values of Table 2): 6 fold
COc1cc2c(cc1Nc1nc(Nc3ccsc3C(N)=O)c3cc[nH]c3n1)N(C(=O)CN(C)C)CCC2(C)C [GSK2163632A] | 26.3 °C | 6.4 °C | 48.5 °C | 3.1 °C | 0.126 µM | 0.199 | 9.25 °C |  |  | 33.0 °C | 6.3 °C |  |  |  | > 501 µM | 9.2 °C | 4 |  | 
CNC(=O)c1ncccc1Nc1nc(Nc2cc3c(cc2OC)CCCN3C(=O)CN(C)C)nc2[nH]ccc12 [GSK2220400A] | 28.6 °C | 8.7 °C | 45.4 °C | 0.0 °C | 10 µM | 0.770 | 6.87 °C | 38.8 °C | 1.2 °C | 30.5 °C | 3.8 °C | 200 µM | 0.0063 fold | 20 fold | > 501 µM | 6.9 °C | 13 | 6.31 µM | lower potency against GRK1 (GRK1 [2]; relative to GSK2163632A): 100 fold; GRK1 fold (increase in potency relative to paroxetine) (GRK1 [2]): 40 fold
CN[C@@H]1C[C@H]2O[C@@](C)([C@@H]1OC)n1c3ccccc3c3c4c(c5c6ccccc6n2c5c31)C(=O)NC4 [Staurosporine] |  |  |  |  |  |  | 11.9 °C |  |  |  |  |  |  |  |  | 12 °C |  |  | ΔTm, primary screen, GRK2 (human GRK2S670A; [9]): 5.4 °C; ΔTm at 10 µM (human GRK2S670A; read-out: ΔTm, primary screen, GRK2, 10 μM compound, 2 μM kinase, relative to DMSO control): 5.37 °C
Fc1ccc([C@@H]2CCNC[C@H]2COc2ccc3c(c2)OCO3)cc1 [paroxetine] |  |  | 50.1 °C | 4.7 °C |  |  |  |  |  |  |  |  |  |  | > 501 µM |  |  |  | Ssel (GRK1, 2, and 5 and PKA): 0.085
